Biological target: T1, D1 dopamine receptor (Macaca fascicularis, UniProt Q5I6B7)
T1 sequence (Q5I6B7 whole entry): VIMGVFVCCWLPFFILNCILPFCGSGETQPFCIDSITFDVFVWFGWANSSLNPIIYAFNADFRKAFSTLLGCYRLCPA

Ki [nM]	Structure (SMILES)
1.3	CN1CCc2cc(Cl)c(O)cc2[C@@H](c2ccccc2)C1 [SCH 23390,R(+)]
106	Oc1cc2c(cc1O)[C@@H](c1ccccc1)CNCC2

Structure (SMILES)	Ki [nM]
Oc1cc2c(cc1O)[C@@H]1c3ccccc3CN[C@@H]1CC2 [(+/-)-trans-10,11-dihydroxy-5,6,6a,7,8,12b-hexahydrobenzo[a]phenanthridine]	20.2
